Measurements: US20140004209A1, “AUTOPHAGY INDUCER AND INHIBITOR COMBINATION THERAPY FOR THE TREATMENT OF NEOPLASMS” (GENENTECH, INC., priority 2010, published 2014)
“Also recorded” adds a separate entry of the source.

Experiments:
Type in all cases: cell-based, human
Akt = assay: Immunoblot of Akt and S6 phosphorylation in PC3 cells; conditions: 5 mM NAC
Excerpt: (§1) Western blot analysis, immunofluorescence, 1HC and TUNEL assay: For Western blot analysis, total protein lysates were subjected to SDS-PAGE and transferred to nitrocellulose. Antibodies used were: anti-Akt1, anti-Akt2, anti-Akt3, anti-total-Akt, anti-p-Akt (Ser473), anti-p-Akt (Thr308), anti-p-S6 (Ser235/236), anti-PARP and anti-cleaved caspase-3 (Cell Signaling Technology); anti-p-PRAS40 (Invitrogen); anti-p27^Kip1 (Santa Cruz Biotechnology); anti-LC3 (Novus); anti-LAMP2 and anti-Cathepsin D (BD Biosciences); and anti-GAPDH (Advanced Immunochemical Inc.). Primary antibodies were detected using IR Dye 800-conjugated (Rockland) and Alexa-Fluoro 680-conjugated (Molecular Probes) species-selective secondary antibodies. Detection and quantification were performed using an Odyssey infrared scanner (LICOR) using the manufacturer's software. For immunofluorescence staining, cells were fixed in 3% paraformaldehyde and permeabilized with 0.01% digitonin in PBS, followed by a rabbit polyclonal anti-LC3 (Abgent) primary antibody detected with a cy3-conjugated anti-rabbit secondary antibody (Jackson Immunoresearch). For IHC, formalin-fixed, paraffin-embedded specimens were collected. 5-μm-thick paraffin-embedded sections were stained using an anti-Ki-67 (MIB-1, DakoCytomation) antibody with the Dako ARK kit (Dako Corporation). Tissues were counterstained with haematoxylin, dehydrated, and mounted. In all cases, antigen retrieval was performed with the Dako Target Retrieval Kit as per manufacturer's instructions. For TUNEL assay, formalin-fixed, paraffin-embedded sections were stained using an in situ cell death detection kit (POD; Roche Diagnostic) according to the manufacturer's instructions.

PC3 cells [1] = assay: Mitochondrial superoxide (MitoSOX red) and cellular ROS in PC3 cells; conditions: 5 mM NAC
Description: (B) PC3 cells treated as in A were stained with the Image-iT LIVE green ROS Detection kit and examined by fluorescence microscopy at 24 h. […] (C) Quantification of MitoSOX red and ROS green fluorescence intensities by flow cytometry at 24 h. Cells were treated as in A and B. Error bars represent SEM (n=3).
Because mitochondria are the primary intracellular source of superoxide (O2^−) generation, we analyzed O2^− production using MitoSOX red, an O2^− indicator that accumulates in the mitochondria as a function of membrane potential and fluoresces upon oxidation and subsequent binding to DNA.

PC3 cells [2] = assay: PC3 cell viability and cell death (PI exclusion, annexin V, caspase-3/7)
Description: Cell viability and cell cycle analysis. Cell number and viability was measured using trypan blue exclusion assay using a Vi-Cell Analyzer (Beckman Coulter), or labeled with 1 μg/ml PI in PBS/1% BSA followed by cytofluorometric analysis with a fluorescence-activated cell sorter (FACS) (Becton Dickinson). FITC-conjugated Annexin V was used for the assessment of phosphatidylserine exposure by FACS analysis. Caspase activation was analyzed using a Caspase-Glo 3/7 Assay kit (Promega). For cell cycle analysis, cells were fixed with drop-wise addition of chilled 70% ethanol, washed with PBS and resuspended in staining solution containing 50 μg/ml PI and 60 units of RNAse A. DNA content was analyzed by flow cytometry using the FlowJo and ModFit software (Becton Dickinson).

PC3 cells [3] = assay: Autophagy markers in PC3 cells (EM AVs, GFP-LC3, LC3-II/LC3-I, MDC, AO); conditions: 5 mM NAC
Description: as §1, with “Antibodies used were: anti-Akt1, anti-Akt2, anti-Akt3, anti-total-Akt, anti-p-Akt (Ser473), anti-p-Akt (Thr308), anti-p-S6 (Ser235/236), anti-PARP and anti-cleaved caspase-3 (Cell Signaling Technology); anti-p-PRAS40 (Invitrogen); anti-p27^Kip1 (Santa Cruz Biotechnology); anti-LC3 (Novus); anti-LAMP2 and anti-Cathepsin D (BD Biosciences); and anti-GAPDH (Advanced Immunochemical Inc.). Primary antibodies were detected using IR Dye 800-conjugated (Rockland) and Alexa-Fluoro 680-conjugated (Molecular Probes) species-selective secondary antibodies.” left out
Ultrathin sections were stained with uranyl acetate and lead citrate. Numbers of AV were counted on systematically sampled cytoplasmic areas of 4.5 μm^2 (n≧64 per condition). The percent AV area was measured by means of a square mesh grid laid over ≧5 sets of systematically sampled micrographs with each set covering a cytoplasmic area ≧80 μm^2. The average percent of apoptotic nuclei in tumor tissues was calculated from the number of apoptotic nuclei in 3 to 4 sets of 100 systematically counted tumor cell nuclei.
Multispectral imaging flow cytometry: Cells treated with various agents were stained with Acridine Orange and analyzed by the ImageStream system (Amnis Corporation, Seattle, Wash.) using the IDEAS image analysis program. The DNA AOGreen image and the vacuolar AO Red image were first compensated into separate channels, and then the percentage of apoptotic/anucleate cells (based on AO nuclear morphology and intensity) and vacuolated cells (AO Red+) were quantified. […] AORed Intensity is plotted on the second histogram with an arbitrary gate (R5) drawn to include events with the brightest AO Red intensity.

CC(=O)N[C@@H](CS)C(=O)O [NAC, N-acetylcysteine]
effect of NAC on Akti's inhibition of pAkt or pS6 (Akt): did not affect Akti's ability to inhibit pAkt or pS6 | effect of NAC on MitoSOX Red signal (PC3 cells [1]): reduced MitoSOX Red signal induced by the various treatments | rescue of cell death induced by II-4 (Akti) and CQ (PC3 cells [2]): NAC rescued cell death induced by Akti+CQ; also recorded: rescued cell viability in the presence of II-4 and CQ | effect of NAC on Akti-induced autophagy markers (PC3 cells [3]): counteracted all these effects induced by Akti with or without CQ; also recorded: reduced Akti-induced LC3 and GFP-LC3 lipidation, p62 degradation, and GFP-LC3 puncta formation
